Values of other authors in patent publication US20220257541A1, “Lacosamide for the Treatment of ADD/ADHD” (priority 2019, published 2022).

Experiments:
[1] = system: voltage-gated sodium channels; conditions: cited from earlier work
[2] = system: children who take methylphenidate; conditions: cited from earlier work

Row | Compound | mechanism of action [1] | proportion of children who develop symptoms of obsessive-compulsive behaviour [2]
1 | NC(=O)c1cn(Cc2c(F)cccc2F)nn1 [rufinamide, 1-[(2,6-difluorophenyl)methyl]-1H-1,2,3-triazole-4 carboxamide] | act through voltage-gated sodium channels | –
2 | COC(=O)C(c1ccccc1)C1CCCCN1 (centres unmarked) [methylphenidate] | – | one third
